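Grown in 96-well plates, cells were treated for 48 hours with each compound at five concentrations. Insufficient inhibition: endpoint recorded as highest concentration tested. GI50: concentration for 50% inhibition of growth. TGI: total growth inhibition.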

Some test systems named below: SK-OV-3 ovarian; SR leukemia; MOLT-4 leukemia; BT-549 breast; M14 melanoma; OVCAR-3 ovarian; EKVX NSCLC; KM12 colon; LOX IMVI melanoma; MALME-3M melanoma.
Experiment in all cases: NCI anticancer screen, dose series, 48 h

As for `CC1CC2(C)ON=C(c3ccccc3)N2c2ccccc2S1` (stereo unspecified), the GI50 is 9.55 µM with SK-OV-3 ovarian; 34.6 µM in the experiment with SR leukemia; 16 µM with MOLT-4 leukemia; 24.8 µM with BT-549 breast; 31.7 µM in the experiment with M14 melanoma; 94.1 µM in the experiment with OVCAR-3 ovarian. Also, the values for the GI50 in the experiment with EKVX NSCLC, in the experiment with KM12 colon and in the experiment with LOX IMVI melanoma were 29.4 µM, 17.5 µM and 22 µM, respectively. The TGI was determined as 91.9 µM in the experiment on SK-OV-3 ovarian; 44.9 µM in the experiment with MOLT-4 leukemia; 67.4 µM in the experiment on BT-549 breast; 83.2 µM in the experiment with M14 melanoma; 42.5 µM in the experiment on KM12 colon; 50.1 µM in the experiment with LOX IMVI melanoma.
For `CC1=CC(=NC(=O)CBr)C=C/C1=N\S(=O)(=O)c1ccccc1`, the GI50 with SK-OV-3 ovarian was 14.2 µM; with SR leukemia, 3.41 µM; in the experiment with MOLT-4 leukemia, 2.75 µM; with MALME-3M melanoma, 2.06 µM; in the experiment with BT-549 breast, 3.15 µM; in the experiment on M14 melanoma it was 3.26 µM. The GI50 in the experiment with OVCAR-3 ovarian was 2.04 µM; in the experiment on KM12 colon it was 16.8 µM; in the experiment on LOX IMVI melanoma it was 1.68 µM. Further, the TGI in the experiment on SK-OV-3 ovarian stood at 27.7 µM; in the experiment on SR leukemia, 18.6 µM; in the experiment on MOLT-4 leukemia it was 9.65 µM; with MALME-3M melanoma, 5.89 µM; in the experiment on BT-549 breast, 10.6 µM; in the experiment on M14 melanoma it was 13.9 µM. Besides, the values for the TGI in the experiment with OVCAR-3 ovarian, with KM12 colon and in the experiment with LOX IMVI melanoma were 4.47 µM, 31.2 µM and 3.24 µM, respectively.
As to `COc1cc2nc3sc(C(=O)Nc4ccc(C(=O)OC(C)C)cc4)c(C(=O)Nc4ccc(Cl)cc4C)n3c(=O)c2cc1OC`, the GI50 with SK-OV-3 ovarian is 23.3 µM; with SR leukemia, 3.05 µM; in the experiment with MOLT-4 leukemia, 2.87 µM; in the experiment on MALME-3M melanoma, 0.0691 µM; with BT-549 breast, 1.67 µM; in the experiment with OVCAR-3 ovarian it was 2.66 µM. Besides, the GI50 in the experiment on EKVX NSCLC is 22.8 µM; in the experiment on KM12 colon it was 1.29 µM; in the experiment on LOX IMVI melanoma it was 11.1 µM. Further, the TGI came out at 70 µM in the experiment on SK-OV-3 ovarian; 14.1 µM with SR leukemia; 18.9 µM with MOLT-4 leukemia; 2.44 µM with MALME-3M melanoma; 20 µM with BT-549 breast; 10.6 µM with OVCAR-3 ovarian. Moreover, the TGI in the experiment on EKVX NSCLC was > 100 µM; with KM12 colon, 13.3 µM; with LOX IMVI melanoma, 34.4 µM.
As to `CCOC12OC3=C(CC1CC1=C(CCC1=O)O2)C(=O)CC3` (stereo unspecified), the TGI in the experiment with SK-OV-3 ovarian, in the experiment with SR leukemia, in the experiment with MOLT-4 leukemia, with MALME-3M melanoma, in the experiment on M14 melanoma and in the experiment on OVCAR-3 ovarian was > 100 µM throughout. Further, the TGI in the experiment on EKVX NSCLC, in the experiment with KM12 colon and in the experiment on LOX IMVI melanoma was > 100 µM each time.
For `Nc1nc(N)c(N=O)c(Nc2ccc(O)cc2)n1`, the TGI in the experiment with SK-OV-3 ovarian is 45.1 µM; in the experiment with SR leukemia it was 97.7 µM; in the experiment with MOLT-4 leukemia, > 60.9 µM; in the experiment with MALME-3M melanoma, > 100 µM; in the experiment with BT-549 breast, > 82.9 µM; with OVCAR-3 ovarian it was > 100 µM. For the same compound, the TGI with EKVX NSCLC, with KM12 colon and with LOX IMVI melanoma was > 100 µM in each case.
Regarding `COc1cc2c3c(n(CCCCOC(=O)C(F)(F)F)c(=O)c2cc1OC)-c1cc2c(cc1C3=O)OCO2`, the GI50 was > 100 µM in the experiment on SK-OV-3 ovarian; 0.589 µM in the experiment on SR leukemia; 10.1 µM in the experiment with MOLT-4 leukemia; > 100 µM with MALME-3M melanoma; > 100 µM with BT-549 breast; > 89.8 µM with OVCAR-3 ovarian. Also, the GI50 in the experiment with EKVX NSCLC, with KM12 colon and in the experiment with LOX IMVI melanoma was > 100 µM each time. The TGI in the experiment on SK-OV-3 ovarian was > 100 µM; in the experiment on SR leukemia, 13.4 µM; in the experiment with MOLT-4 leukemia, > 77.3 µM; in the experiment with MALME-3M melanoma it was > 100 µM; in the experiment on BT-549 breast, > 100 µM; in the experiment with OVCAR-3 ovarian, > 100 µM. The TGI with EKVX NSCLC, in the experiment with KM12 colon and in the experiment with LOX IMVI melanoma was > 100 µM throughout.
`Cn1c2ccccc2c(=S)c2ccccc21`: the TGI in the experiment on SK-OV-3 ovarian, in the experiment on SR leukemia, in the experiment on MOLT-4 leukemia, in the experiment on BT-549 breast, with M14 melanoma and in the experiment with OVCAR-3 ovarian was > 100 µM throughout. The TGI in the experiment on EKVX NSCLC, with KM12 colon and with LOX IMVI melanoma was > 100 µM each time.
As for `CCOc1c(Br)cc(C2C(C(=O)OC)=CN(C)C=C2C(=O)OC)cc1OC`, the GI50 in the experiment on SK-OV-3 ovarian is > 100 µM; in the experiment on SR leukemia, 30.6 µM; in the experiment with MOLT-4 leukemia, 38.9 µM; with MALME-3M melanoma it was > 100 µM; in the experiment on BT-549 breast, 76 µM; in the experiment with M14 melanoma, 64.1 µM. Further, the GI50 in the experiment on OVCAR-3 ovarian was 45.6 µM; with KM12 colon, 38.6 µM; in the experiment with LOX IMVI melanoma, 85.1 µM. In addition, the TGI with SK-OV-3 ovarian, with SR leukemia, with MOLT-4 leukemia, in the experiment on MALME-3M melanoma, with BT-549 breast and in the experiment on M14 melanoma was > 100 µM in each case. Moreover, the TGI in the experiment on OVCAR-3 ovarian, in the experiment with KM12 colon and in the experiment with LOX IMVI melanoma was > 100 µM in each case.
Consider `COc1cc(/C=C2/C(=O)N(C(=O)OC(C)C)C(Cc3cc(OC)c(OC)c(C)c3OC)C(=O)N2Cc2ccccc2)c(OC)c(C)c1OC` (stereo unspecified), for which the TGI was > 100 µM with SK-OV-3 ovarian; 51.1 µM in the experiment on SR leukemia; 44.1 µM with MOLT-4 leukemia; > 100 µM in the experiment with MALME-3M melanoma; > 100 µM in the experiment with M14 melanoma; > 100 µM in the experiment on OVCAR-3 ovarian. In addition, the TGI in the experiment on EKVX NSCLC, in the experiment on KM12 colon and in the experiment with LOX IMVI melanoma was > 100 µM throughout.
Regarding `O=c1c2cccc(Cl)c2sc2c(NCCCNCCO)nc3ccccc3c12`, the GI50 in the experiment with SR leukemia is 1.6 µM; in the experiment on MOLT-4 leukemia it was 2.12 µM; in the experiment on MALME-3M melanoma it was 1.61 µM; with BT-549 breast, 14.8 µM; with M14 melanoma it was 1.79 µM; with OVCAR-3 ovarian it was 2.28 µM. For the same compound, the GI50 with EKVX NSCLC was 3.4 µM; in the experiment with KM12 colon it was 1.87 µM; with LOX IMVI melanoma it was 1.41 µM. The TGI in the experiment with SR leukemia worked out at 5.97 µM; in the experiment with MOLT-4 leukemia, 5.19 µM; with MALME-3M melanoma it was 3.15 µM; in the experiment on BT-549 breast it was 30.6 µM; in the experiment with M14 melanoma, 3.54 µM; in the experiment with OVCAR-3 ovarian, 6.19 µM. Further, the TGI in the experiment with EKVX NSCLC amounted to 17.5 µM; with KM12 colon, 3.73 µM; with LOX IMVI melanoma, 2.77 µM.
